Measurements as given in US10751418B2, “Orally bioavailable lipid-based constructs” (SDG, Inc., priority 2007, dated 2020).
No end group written: not given here.

Experiments:
Assay type in all cases: in vivo
[1] = test system: insulin deficient rats (alloxan and streptozotocin); experiment: Liver glycogen after oral GLP-1 in alloxan/streptozotocin treated rats; conditions: Dose GLP-1 0.01 mg/rat, 2 hours post dosing
Protocol: Rats were fasted overnight. Subsequently, 800 mg each of alloxan and streptozotocin were dissolved in 40 mL of PBS (pH 7, 0.01M). The fasted rats were then treated immediately with a 0.5 mL IP dose to induce insulin deficiency. The animals were then stabilized overnight with water and food. Following stabilization, the rats were fasted overnight to deplete liver glycogen.
Subsequently, the rats were administered 1.5 g glucose/kg body weight and GLP-1 in the form of a GLP-1 associated with a composition comprising approximately 62 mole percent 1,2 distearoyl-sn-glycero-3-phosphocholine, approximately 22 mole percent dihexadecyl phosphate, and approximately 16 mole percent cholesterol (“associated GLP-1”). In separate experiments, the amount of associated GLP-1 was varied. Liver glycogen was measured chemically at 2 hours post dosing.
As a control, unassociated GLP-1 was gavaged in place of associated GLP-1. In a separate control, GLP-1, in a dose similar to that orally gavaged, was injected intraperitoneally.

[2] = test system: mice made diabetic by streptozotocin and alloxan; experiment: Blood glucose after oral dosing via drinking water in alloxan-streptozotocin treated mice; conditions: day seven, 0.1 U/ml in drinking water, tail-vein blood
Excerpt: Mice used in the present experiment were made diabetic by administering streptozotocin and alloxan. The diabetic animals were then divided into two groups. The control group (11 mice) was orally dosed with regular insulin. The experimental group (7 mice) was orally dosed with a composition comprising insulin and approximately 61 mole percent 1,2 distearoyl-sn-glycero-3-phosphocholine, approximately 22 mole percent dihexadecyl phosphate, approximately 16 mole percent cholesterol, and approximately 1 mole percent poly[Cr-bis(N-2,6-diisopropylphenylcarbamoylmethyl iminodiacetic acid)] (wherein a known portion of the phospholipid component comprised ^14C labeled phospholipid). Dosing was accomplished utilizing the water bottle dosing method described in Experiment 2.
After being made diabetic, […] in both groups were treated identically over a 7 day period and fed with plain food and plain water. Following this 7 day period, rats in the control group were treated for an additional 7 day experimental period with food and regular insulin in the available drinking water at 0.1 U/ml. Over the same 7 day experimental period, the experimental group was fed regular food with the composition of the invention available in the drinking water at 0.1 U/ml. At the end of each 7-day period, blood glucose was measured in a tail-vein sample of blood by a Beckman Blood Glucose Analyzer.

normal, fasted rats = experiment: Blood calcium levels after calcitonin administration; conditions: subcutaneous injection, control rats
Protocol: Normal, fasted, control rats were given a dose of salmon calcitonin via subcutaneous injection such that an initial 10% reduction in blood calcium was observed. Blood calcium levels were then measured for six hours post injection. An experimental group of rats was given the same effective dose of calcitonin by oral gavage, in the form of a composition comprising calcitonin and approximately 62 mole percent 1,2 distearoyl-sn-glycero-3-phosphocholine, approximately 22 mole percent dihexadecyl phosphate, and approximately 16 mole percent cholesterol. Blood calcium levels were followed for six hours (FIG. 8). […] This difference was statistically significant (FIG. 8).

“GLP-1: unassociated GLP-1 peptide, gavaged or injected intraperitoneally as control (HAEGTFTSDVSSYLEGQAAKEFIAWLVKGR; ends and bridges not checked; UniProt P01275 98-127, looked up)” was tested, and the “Liver Glycogen” value ([1]; intraperitoneal) was 59 ± 44 mg/g liver and the “Liver Glycogen” value ([1]; oral gavage) was 40 ± 22 mg/g liver.
“regular insulin: regular insulin orally dosed to the control group in drinking water” was tested, and the blood glucose [2] was “not altered at all”.
In the case of salmon calcitonin, the “initial reduction in blood calcium” value (normal, fasted rats) is reported as 10%.
